Like-named read-outs stand apart in the source and are kept apart here.
Tests used:
MEKK2 [1] = biological target: T1, MEKK2 (Homo sapiens, UniProt Q9Y2U5); assay: MEKK2 intrinsic ATPase activity assay; type: biochemical
T1 sequence (Q9Y2U5 1-619): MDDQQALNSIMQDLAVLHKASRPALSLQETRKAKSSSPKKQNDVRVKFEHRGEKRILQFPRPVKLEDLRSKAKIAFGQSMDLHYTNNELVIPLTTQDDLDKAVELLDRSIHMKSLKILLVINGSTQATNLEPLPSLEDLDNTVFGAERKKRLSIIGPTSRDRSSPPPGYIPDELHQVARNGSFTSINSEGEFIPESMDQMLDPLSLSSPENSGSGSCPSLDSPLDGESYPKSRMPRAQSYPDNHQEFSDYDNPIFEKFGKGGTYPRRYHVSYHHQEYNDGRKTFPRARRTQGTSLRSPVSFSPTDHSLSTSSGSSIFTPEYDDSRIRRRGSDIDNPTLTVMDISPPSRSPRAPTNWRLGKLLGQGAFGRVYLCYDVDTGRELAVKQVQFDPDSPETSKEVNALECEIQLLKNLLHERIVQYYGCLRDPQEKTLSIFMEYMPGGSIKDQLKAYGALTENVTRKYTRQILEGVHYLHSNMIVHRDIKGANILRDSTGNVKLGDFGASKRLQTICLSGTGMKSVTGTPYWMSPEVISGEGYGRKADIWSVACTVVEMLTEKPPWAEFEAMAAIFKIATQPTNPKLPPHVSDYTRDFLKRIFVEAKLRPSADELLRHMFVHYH

MEKK2 [2] = biological target: T1, MEKK2; assay: MEKK2 transphosphorylation slot blot assay using MKK6 as a substrate; type: biochemical
Aurora A = conditions: read-out: IC50 Aurora A; cited from earlier work
Aurora B [3] = conditions: read-out: IC50 Aurora B; cited from earlier work
JAK3 = conditions: read-out: IC50 JAK3; cited from earlier work
Abl (T315I) mutant = conditions: read-out: IC50 Abl (T315I) mutant; cited from earlier work
10 other kinases = conditions: read-out: IC50 10 other kinases; cited from earlier work
Aurora B [4] = conditions: read-out: IC50 Aurora B; cited from earlier work; remark: listed apart in the source
CDK1 = conditions: read-out: IC50 CDK1; cited from earlier work
CDK2 = conditions: read-out: IC50 CDK2; cited from earlier work
CDK3 = conditions: read-out: IC50 CDK3; cited from earlier work

IC50 (MEKK2 [1]) [nM] | IC50 (MEKK2 [2]) [nM] | Structure (SMILES) | IC50 (Aurora A) [nM] | IC50 (Aurora B [3]) [nM] | IC50 (JAK3) [nM] | IC50 (Abl (T315I) mutant) [nM] | IC50 (10 other kinases) [nM] | IC50 (Aurora B [4]) [nM] | IC50 (CDK1) [nM] | IC50 (CDK2) [nM] | IC50 (CDK3) [nM]
[…] | 4.7 ± 0.9 | O=C(Nc1c[nH]nc1-c1nc2ccc(CN3CCOCC3)cc2[nH]1)NC1CC1 [AT9283] | […] | […] | […] | 4 | […] |  |  |  | 
20 ± 7 | 14 ± 2 | NC(=O)Nc1cc(-c2cccc(F)c2)sc1C(=O)N[C@H]1CCCNC1 [AZD7762] |  |  |  |  |  |  |  |  | 
60 ± 25 | 34 ± 11 | CCS(=O)(=O)Nc1ccc2c(c1)/C(=C(/Nc1ccc(CN3CCCCC3)cc1)c1ccccc1)C(=O)N2 [Hesperadin] |  |  |  |  |  | 250 |  |  | 
24 ± 8 | 17 ± 2 | Nc1nc(Nc2ccc(S(N)(=O)=O)cc2)nn1C(=O)c1c(F)cccc1F [JNJ-7706621] |  |  |  |  |  |  | […] | […] | […]

From PMC4500090 (Biochemical and biophysical research communications, 2015)
